From PMC7269146, “Jingzhaotoxin-X, a gating modifier of Kv4.2 and Kv4.3 potassium channels purified from the venom of the Chinese tarantula Chilobrachys jingzhao” (The Journal of Venomous Animals and Toxins Including …, 2020)
Where a SMILES comes first, the peptide text is derived from it. Bridges are numbered along the chain shown (N, C = ends).

Assays:
Format in all cases: cell-based
HVA Cav channels = assay: whole-cell voltage-clamp, HVA Cav currents of rat DRG neurons; conditions: 10 μM, n = 3
Kv4.2 = biological target: T1, Kv4.2 (Rattus norvegicus, UniProt Q63881); assay: whole-cell patch-clamp, Kv4.2 in HEK293t cells, concentration-response and time course
T1 construct: expressed in transfected cells; host or cells: HEK293t
T1 sequence (Q63881 1-630): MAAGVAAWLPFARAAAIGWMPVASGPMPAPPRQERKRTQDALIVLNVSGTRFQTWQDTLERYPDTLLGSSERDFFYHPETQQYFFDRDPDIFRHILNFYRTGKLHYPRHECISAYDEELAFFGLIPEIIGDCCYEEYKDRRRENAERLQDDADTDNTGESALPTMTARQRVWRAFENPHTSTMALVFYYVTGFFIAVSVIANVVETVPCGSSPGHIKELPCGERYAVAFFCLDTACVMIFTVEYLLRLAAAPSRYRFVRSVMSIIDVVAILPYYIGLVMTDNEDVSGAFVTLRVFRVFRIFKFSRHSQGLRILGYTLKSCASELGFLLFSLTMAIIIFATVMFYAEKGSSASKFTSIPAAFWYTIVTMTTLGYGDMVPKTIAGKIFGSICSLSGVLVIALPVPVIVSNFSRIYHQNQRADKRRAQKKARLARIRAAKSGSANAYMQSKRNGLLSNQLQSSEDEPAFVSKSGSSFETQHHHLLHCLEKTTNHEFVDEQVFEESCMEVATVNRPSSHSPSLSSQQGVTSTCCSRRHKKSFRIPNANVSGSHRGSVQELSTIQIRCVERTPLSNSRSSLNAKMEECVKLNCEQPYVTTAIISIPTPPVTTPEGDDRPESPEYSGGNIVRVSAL
From the text: Rat cDNA genes encoding Kv4.2 (Accession: NM_031730.2) and Kv4.3 (Accession: AB003587.1) were subcloned to vector pcDNA3.1. In addition, human cDNA genes encoding Nav1.7 (Accession: DQ857292.1) and Nav1.5 (Accession: AB158469.2) were subcloned to vectors pcDNA3.1-mod and pcDNA3.1, separately. Then, Kv4.2, Kv4.3, Nav1.5 and Nav1.7 constructs were transiently transfected into the human embryonic kidney 293t (HEK293t) cells using lipofectamine 2000 (Invitrogen, USA) in accordance with manufacturer protocols. Thereafter, HEK293 cells were inoculated within Dulbecco’s modified Eagle’s medium (DMEM) containing 10% fetal bovine serum (FBS) at 5% CO2 and 37°C. The Kv4.3 channel and the Kv4.2 counterpart were then transfected in the absence of β subunit. Subsequently, cells were incubated with a DNA-lipofectamine mixture (one reporter plasmid for green fluorescence protein and channel constructs) for 4-6 h, and were washed with the fresh medium.
(§1) An EPC-10 patch-clamp amplifier (HEKA, Germany) was employed to record the potassium currents at the configuration of whole-cell patch-clamp under an ambient temperature of 22-25°C. The resistance was 2.0-3.0 MΩ when the recording pipette contained a full volume of internal solution (supplemented with 140 mM KCl, 10 mM HEPES, 2.5 mM MgCl2, 5 mM ATP and 11 mM EGTA). KOH was utilized to adjust the pH to 7.2, while sucrose was employed to adjust the osmolarity to 310 mOsm/L. The culture medium was replaced with an external solution containing 150 mM NaCl, 2.5 mM CaCl2, 10 mM HEPES, 2 mM MgCl2, 5 mM KCl, and 10 mM D-glucose. Similarly, sucrose and NaOH were applied to adjust the osmolarity to 330 mOsm/L and pH to 7.4. […] The series resistance was maintained at about 5 MΩ, with 65-70% compensation. Finally, the leakage currents and linear capacitance were subtracted digitally according to the P/4 protocol. […]
On-rates were determined by fitting time course data with a single exponential decay function (2): y = Ae^-kx + C, where x is the time, A is the normalized current value before the application of toxin (usually 1.0), and C is the final normalized current value following the block by the toxin. The on-rate (τon) was determined from the inverse of the rate constant k.
Off-rates were determined by fitting time course data with a double exponential association function (3): y = A(1-e^-kx) + B(1-e^-fx) + C, where x is the time, A or B is the normalized current value after washout of the toxin (usually 1.0 if complete washout occurred), and C is the normalized current value before the washout of the toxin. The off-rate (τoff) was determined from the inverse of the rate constant k or f.

Ito potassium channels = assay: voltage-clamp, Ito potassium currents in rat DRG neurons
Protocol: as §1
Firstly, the effects of JZTX-X on the isoforms of potassium channels (including Kv1.1-1.3, Kv2.1, as well as Kv4.2-4.3) contained within the X. laevis oocytes were investigated through the microelectrode voltage-clamp approach. […] We also determined the effects of JZTX-X on Ito potassium channels in rat DRG neurons; those current amplitudes were inhibited by 54.4±6.8% when 500 nM JZTX-X was applied (Fig. 3K, n = 5).

CC(C)C[C@@H]1NC(=O)[C@H](CCCCN)NC(=O)[C@H](Cc2ccc(O)cc2)NC(=O)[C@@H]2CSSC[C@@H]3NC(=O)[C@H](Cc4ccc(O)cc4)NC(=O)[C@H](Cc4ccccc4)NC(=O)CNC(=O)[C@H](C)NC(=O)[C@H](CSSC[C@H](NC(=O)[C@@H](N)CC(C)C)C(=O)N[C@@H](CO)C(=O)N[C@@H](CCCNC(=N)N)C(=O)N[C@@H](CCC(=O)O)C(=O)NCC(=O)N[C@@H](CCC(=O)O)C(=O)N[C@@H](Cc4ccccc4)C(=O)N2)NC(=O)[C@H](CSSC[C@@H](C(=O)N[C@@H](Cc2ccc(O)cc2)C(=O)N[C@@H](CCCNC(=N)N)C(=O)N[C@@H](CC(N)=O)C(=O)O)NC(=O)[C@H](Cc2c[nH]cn2)NC(=O)[C@H](CC(C)C)NC(=O)[C@H](C(C)C)NC(=O)[C@H](Cc2ccccc2)NC(=O)[C@H](C)NC(=O)[C@H](CCCCN)NC3=O)NC(=O)[C@H](CCCCN)NC(=O)[C@H](CCCNC(=N)N)NC1=O [JZTX-X, Jingzhaotoxin-X] (H-LCSREGEFCYKLRKCCAGFYCKAFVLHCYRN-OH; disulfide 2-16, 9-21, 15-28; N-terminus assumed)
inhibition of HVA Cav current (HVA Cav channels): less than 5% | inhibition of Kv4.2 at resting potential without pulses (Kv4.2; -80 mV, no pulse during first ~100 s of treatment with 200 nM or 500 nM (order Kv4.2, Kv4.3), same as with pulses at 5 s intervals, n = 5): approximately 95% | IC50 (Kv4.2; HEK293t cells, 1 nM-10 μM, 300-ms step to +20 mV from -80 mV, 22-25°C, pH 7.4, Hill equation fit, n = 7, read-out: IC50 for Kv4.2 channels): 68 nM | Hill Coefficient, Kv4.2 (Kv4.2; HEK293t cells, +20 mV from -80 mV, n = 7): 0.91 | reversal of Kv4.2 inhibition after rinsing (Kv4.2; in 3 min following rinsing, high JZTX-X dose, HEK293t cells, n = 6): > 95% | inhibition of Ito current (Ito potassium channels; 500 nM, n = 5): 54.4±6.8% | IC50 (Ito potassium channels; Hill equation fit, n = 6): 386 nM
